This is an account of results in US20240383874A1, “BENZENE RING DERIVATIVE, AND COMPOSITION AND PHARMACEUTICAL USE THEREOF” (Xizang Haisco Pharmaceutical Co., Ltd., priority 2020, published 2024).

Where a name gives a salt, the structure may show the parent alone. Read-outs that look alike come from different tables or passages of the source.

The nature of data set [1]: Pharmacokinetic test in rats. The settings on record: rat, po; male SD rats, single dose i.g. 5 mg/kg, plasma, 0-24 h. Type of data set: in vivo. As to the method: Test objective: in this test, a single dose of test compounds was administered to SD rats intragastrically, and the concentrations of the test compounds in plasma of the rats were measured to evaluate pharmacokinetic characteristics of the test compounds in the rats.
Test animals: male SD rats, 200-250 g, 6-8 weeks old, 3 rats/compound, purchased from Chengdu Dossy Experimental Animals Co., Ltd.
Test method: on the day of the test, 3 SD rats were randomly grouped according to their body weights. The animals were fasted with water available for 12 to 14 hours one day before the administration of a test compound, and were fed 4 hours after the administration.
Sampling: before and after the administration, 0.1 mL of blood was taken from the orbits of the rats under isoflurane anesthesia, and placed in an EDTAK2 centrifuge tube. Centrifugation was carried out at 5000 rpm at 4C for […], and the plasma was collected.
Time points for plasma collection in G1 group: 0, 5 min, 15 min, 30 min, 1 h, 2 h, 4 h, 6 h, 8 h, and 24 h.
Before analysis and detection, all samples were stored at −80° C. The samples were analyzed quantitatively by LC-MS/MS.

The subject of a further data set is 22RV1 cells. Nature of the data set: Experiment 2 on inhibiting 22RV1 cell proliferation (7 days, CellTiter-Glo). Type of data set: cell-based. The settings on record: 1% css-FBS phenol red-free medium, incubated with compound 7 days, read-out: IC50 values on proliferation inhibition of 22RV1 cells. In outline: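 22RV1 cells plated at 2000/well in phenol red-free medium with 1% css-FBS and treated next day with compound for 7 days at 37 °C. Viability read by CellTiter-Glo luminescence relative to DMSO vehicle; IC50 from dose-response fit.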
In general terms: Cellular ATP, detected with luciferase, serves as a proxy for viable cell number.

In data set [1], `[2H]C([2H])([2H])Oc1c(Cl)cc(C(C)(C)c2ccc(OCc3ccnc(N4CCC(CN5CCC(C6CCN(c7ccc8c(c7)n(C)c(=O)n8C7CCC(=O)NC7=O)CC6)CC5)CC4)n3)cc2)cc1C#N` (centres unmarked) [Compound 99 trifluoroacetate, 3-chloro-5-(2-(4-((2-(4-((1′-(1-(2,6-dioxopiperidin-3-yl)-3-methyl-2-oxo-2,3-dihydro-1H-benzo[d]imidazol-5-yl)-[4,4′-bipiperidin]-1-yl)methyl)piperidin-1-yl)pyrimidin-4-yl)methoxy)phenyl)propan-2-yl)-2-(methoxy-d3)benzonitrile] had an AUC(0-t) of 541 ± 80 ng·h/mL. Moreover, the IC50 in the data set on 22RV1 cells (Homo sapiens, 22Rv1, 168 h) came to 427 nM.
The molecule `CC(C)(c1ccc(OCc2ccnc(N3CCC(CN4CCC(C5CCN(c6ccc7c(c6)C(=O)N(C6CCC(=O)NC6=O)C7=O)CC5)CC4)C3)n2)cc1)c1cc(Cl)cc(C#N)c1` (centres unmarked) [Compound 130, 3-chloro-5-(2-(4-((2-(3-((1′-(2-(2,6-dioxopiperidin-3-yl)-1,3-dioxoisoindolin-5-yl)-[4,4′-bipiperidin]-1-yl)methyl)pyrrolidin-1-yl)pyrimidin-4-yl)methoxy)phenyl)propan-2-yl)benzonitrile] had an AUC(0-t) in data set [1] of 665 ± 264 ng·h/mL. In the data set on 22RV1 cells, the IC50 stood at 483 nM.
`COc1c(Cl)cc(C(C)(C)c2ccc(OCc3ccnc(N4CCC(CN5CCC(C6CCN(c7cc8c(cc7F)n(C7CCC(=O)NC7=O)c(=O)n8C)CC6)CC5)CC4)n3)cc2)cc1C#N` (centres unmarked) [Compound 123 trifluoroacetate, 3-chloro-5-(2-(4-((2-(4-((1′-(1-(2,6-dioxopiperidin-3-yl)-6-fluoro-3-methyl-2-oxo-2,3-dihydro-1H-benzo[d]imidazol-5-yl)-[4,4′-bipiperidin]-1-yl)methyl)piperidin-1-yl)pyrimidin-4-yl)methoxy)phenyl)propan-2-yl)-2-methoxybenzonitrile] came in with an AUC(0-t) in data set [1] of 1190 ± 724 ng·h/mL. Also, in the data set on 22RV1 cells (Homo sapiens, 22Rv1, 168 h), the IC50 turned out to be 527 nM.
Consider `CCOc1c(Cl)cc(C(C)(C)c2ccc(OCc3ccnc(N4CCC(CN5CCC6(CC5)CN(c5ccc7c(c5)n(C)c(=O)n7C5CCC(=O)NC5=O)C6)CC4)n3)cc2)cc1C#N` (centres unmarked) [Compound 118 trifluoroacetate, 3-chloro-5-(2-(4-((2-(4-((2-(1-(2,6-dioxopiperidin-3-yl)-3-methyl-2-oxo-2,3-dihydro-1H-benzo[d]imidazol-5-yl)-2,7-diazaspiro[3.5]nonan-7-yl)methyl)piperidin-1-yl)pyrimidin-4-yl)methoxy)phenyl)propan-2-yl)-2-ethoxybenzonitrile], for which the AUC(0-t) in data set [1] turned out to be 686 ± 336 ng·h/mL.
`CCOc1c(Cl)cc(C(C)(C)c2ccc(OCc3ccnc(N4CCC(CN5CCC(C6CCN(c7ccc(C(=O)NC8CCC(=O)NC8=O)nc7)CC6)CC5)CC4)n3)cc2)cc1C#N` (centres unmarked) [Compound 111 trifluoroacetate, 5-(1′-((1-(4-((4-(2-(3-chloro-5-cyano-4-ethoxyphenyl)propan-2-yl)phenoxy)methyl)pyrimidin-2-yl)piperidin-4-yl)methyl)-[4,4′-bipiperidin]-1-yl)-N-(2,6-dioxopiperidin-3-yl)picolinamide] registered an AUC(0-t) in data set [1] of 574 ± 59 ng·h/mL. The IC50 in the data set on 22RV1 cells (Homo sapiens, 22Rv1, 168 h) was 290 nM.
The molecule `CC(C)(c1ccc(OCc2ccnc(N3CCC(CN4CCC(C5CCN(c6ccc7c(c6)C(=O)N(C6CCC(=O)NC6=O)C7=O)CC5)CC4)CC3)n2)cc1)c1cc(Cl)cc(C#N)c1` (centres unmarked) [Compound 37 trifluoroacetate, 3-chloro-5-(2-(4-((2-(4-((1′-(2-(2,6-dioxopiperidin-3-yl)-1,3-dioxoisoindolin-5-yl)-[4,4′-bipiperidin]-1-yl)methyl)piperidin-1-yl)pyrimidin-4-yl)methoxy)phenyl)propan-2-yl)benzonitrile] registered an AUC(0-t) in data set [1] of 867 ± 66 ng·h/mL. Besides, in the data set on 22RV1 cells (Homo sapiens, 22Rv1, 168 h), the IC50 was 507 nM.
The molecule `CC(C)(c1ccc(OCc2ccnc(N3CCC(N4CCC(C5CCN(c6ccc7c(c6)C(=O)N(C6CCC(=O)NC6=O)C7=O)CC5)CC4)CC3)n2)cc1)c1cc(Cl)cc(C#N)c1` (centres unmarked) [Compound 131, 3-chloro-5-(2-(4-((2-(1″-(2-(2,6-dioxopiperidin-3-yl)-1,3-dioxoisoindolin-5-yl)-[4,1′:4′,4″-terpiperidin]-1-yl)pyrimidin-4-yl)methoxy)phenyl)propan-2-yl)benzonitrile] gave an AUC(0-t) in data set [1] of 446 ± 225 ng·h/mL. For the same molecule, in the data set with 22RV1 cells, the IC50 came to 507 nM.
In data set [1], `CC(C)(c1ccc(OCc2ccnc(N3CCC4(CCN(CC5CC6(CCN(c7ccc8c(c7)C(=O)N(C7CCC(=O)NC7=O)C8=O)CC6)C5)CC4)CC3)n2)cc1)c1cc(Cl)cc(C#N)c1` (centres unmarked) [Compound 129, 3-chloro-5-(2-(4-((2-(9-((7-(2-(2,6-dioxopiperidin-3-yl)-1,3-dioxoisoindolin-5-yl)-7-azaspiro[3.5]nonan-2-yl)methyl)-3,9-diazaspiro[5.5]undecan-3-yl)pyrimidin-4-yl)methoxy)phenyl)propan-2-yl)benzonitrile] came in with an AUC(0-t) of 812 ± 304 ng·h/mL. Besides, in the data set with 22RV1 cells, the IC50 was found to be 569 nM.
On to `CC(C)(c1ccc(OCc2ccnc(N3CCC4(CC3)CN(CC3CCN(c5ccc6c(c5)C(=O)N(C5CCC(=O)NC5=O)C6=O)CC3)C4)n2)cc1)c1cc(Cl)cc(C#N)c1` (centres unmarked) [Compound 45, 3-chloro-5-(2-(4-((2-(2-((1-(2-(2,6-dioxopiperidin-3-yl)-1,3-dioxoisoindolin-5-yl)piperidin-4-yl)methyl)-2,7-diazaspiro[3.5]nonan-7-yl)pyrimidin-4-yl)methoxy)phenyl)propan-2-yl)benzonitrile], for which, in data set [1], the AUC(0-t) worked out at 452 ± 137 ng·h/mL.
In data set [1], `Cn1c(=O)n(C2CCC(=O)NC2=O)c2ccc(N3CCC(C4CCN(CC5CCN(c6nccc(COc7ccc(C(C)(C)c8cc(Cl)c(OCCCl)c(C#N)c8)cc7)n6)CC5)CC4)CC3)cc21` (centres unmarked) [Compound 98 trifluoroacetate, 3-chloro-2-(2-chloroethoxy)-5-(2-(4-((2-(4-((1′-(1-(2,6-dioxopiperidin-3-yl)-3-methyl-2-oxo-2,3-dihydro-1H-benzo[d]imidazol-5-yl)-[4,4′-bipiperidin]-1-yl)methyl)piperidin-1-yl)pyrimidin-4-yl)methoxy)phenyl)propan-2-yl)benzonitrile] gave an AUC(0-t) of 492 ± 266 ng·h/mL. Further, the IC50 in the data set with 22RV1 cells (Homo sapiens, 22Rv1, 168 h) stood at 621 nM.
`CC(C)(c1ccc(OCc2ccnc(N3CCC4(CC3)CCN(C3CC5(CCN(c6ccc7c(c6)C(=O)N(C6CCC(=O)NC6=O)C7=O)CC5)C3)CC4)n2)cc1)c1cc(Cl)cc(C#N)c1` (centres unmarked) [Compound 128, 3-chloro-5-(2-(4-((2-(9-(7-(2-(2,6-dioxopiperidin-3-yl)-1,3-dioxoisoindolin-5-yl)-7-azaspiro[3.5]nonan-2-yl)-3,9-diazaspiro[5.5]undecan-3-yl)pyrimidin-4-yl)methoxy)phenyl)propan-2-yl)benzonitrile] showed an AUC(0-t) in data set [1] of 604 ± 149 ng·h/mL. The IC50 with 22RV1 cells was 132 nM.
Consider `CC(C)(c1ccc(OCc2ccnc(N3CCC(CN4CCC(C5CCN(c6cc7c(cc6F)C(=O)N(C6CCC(=O)NC6=O)C7=O)CC5)CC4)CC3)n2)cc1)c1cc(Cl)cc(C#N)c1` (centres unmarked) [Compound 78, 3-chloro-5-(2-(4-((2-(4-((1′-(2-(2,6-dioxopiperidin-3-yl)-6-fluoro-1,3-dioxoisoindolin-5-yl)-[4,4′-bipiperidin]-1-yl)methyl)piperidin-1-yl)pyrimidin-4-yl)methoxy)phenyl)propan-2-yl)benzonitrile], for which, in data set [1], the AUC(0-t) turned out to be 2350 ± 309 ng·h/mL.
In data set [1], `CC(Oc1ccc(C(C)(C)c2cc(Cl)cc(C#N)c2)cc1)c1ccnc(N2CCC(CN3CCC(C4CCN(c5cc6c(cc5F)C(=O)N(C5CCC(=O)NC5=O)C6=O)CC4)CC3)CC2)n1` (centres unmarked) [Compound 127, 3-chloro-5-(2-(4-(1-(2-(4-((1′-(2-(2,6-dioxopiperidin-3-yl)-6-fluoro-1,3-dioxoisoindolin-5-yl)-[4,4′-bipiperidin]-1-yl)methyl)piperidin-1-yl)pyrimidin-4-yl)ethoxy)phenyl)propan-2-yl)benzonitrile] returned an AUC(0-t) of 1860 ± 185 ng·h/mL. For the same molecule, in the data set with 22RV1 cells, the IC50 came to 549 nM.
`COc1c(Cl)cc(C(C)(C)c2ccc(OCc3ccnc(N4CCC(CN5CCC(C6CCN(c7ccc(C(=O)NC8CCC(=O)NC8=O)nc7)CC6)CC5)CC4)n3)cc2)cc1C#N` (centres unmarked) [Compound 112 trifluoroacetate, 5-(1′-((1-(4-((4-(2-(3-chloro-5-cyano-4-methoxyphenyl)propan-2-yl)phenoxy)methyl)pyrimidin-2-yl)piperidin-4-yl)methyl)-[4,4′-bipiperidin]-1-yl)-N-(2,6-dioxopiperidin-3-yl)picolinamide] displayed an AUC(0-t) in data set [1] of 827 ± 211 ng·h/mL. The IC50 in the data set on 22RV1 cells (Homo sapiens, 22Rv1, 168 h) is 463 nM.
`COc1c(Cl)cc(C(C)(C)c2ccc(OCc3ccnc(N4CCC(CN5CCC(C6CCN(c7ccc(N8CCC(=O)NC8=O)cc7)CC6)CC5)CC4)n3)cc2)cc1C#N` [Compound 120, 3-chloro-5-(2-(4-((2-(4-((1′-(4-(2,4-dioxotetrahydropyrimidin-1(2H)-yl)phenyl)-[4,4′-bipiperidin]-1-yl)methyl)piperidin-1-yl)pyrimidin-4-yl)methoxy)phenyl)propan-2-yl)-2-methoxybenzonitrile] gave an area under the curve AUC(0-t) in data set [1] of 1430 ± 209 ng·h/mL.

One may read the AUC(0-t) as exposure summed from dosing to a finite time, without extrapolation to infinity. Higher therefore signals high exposure.
